These results are taken from ChEMBL document CHEMBL1201862, “PubChem BioAssay data set” (2004).

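Step 1: Grow cells in 96-well plates. Step 2: Expose to compound for 48 hours at 5 concentrations. Step 3: Interpolate endpoints linearly; if unreached, use highest concentration. GI50 is the concentration that inhibits growth by half.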 Active and inactive are the calls of the source. No stated cut-off is given here; in the data, active = GI50 up to about 1.1 µM and inactive = higher.

Some test systems named below: OVCAR-4; NCI/ADR-RES; DU-145; M14; TK-10; KM12; NCI-H522; HT-29; A549; NCI-H23; OVCAR-8; K562; LOX IMVI; SR; OVCAR-3; RXF 393; COLO 205; SK-MEL-5; UACC-257; SK-MEL-28.
Holding throughout (test): inhibition of tumour cell growth, NCI panel, 48 h

As to `COc1cc(C2C3=C(COC3=O)Oc3cc4c(cc32)OCO4)cc(OC)c1OC(C)=O` (configuration not stated), the GI50 was 29.6 µM (inactive) in the assay with OVCAR-4; < 0.01 µM (active) with NCI/ADR-RES; 0.0381 µM (active) in the assay on DU-145; 0.0216 µM (active) with M14; 0.966 µM (active) with TK-10; 0.0135 µM (active) in the assay with KM12. In addition, the GI50 in the assay on NCI-H522 was < 0.01 µM (active); in the assay with HT-29, 0.0262 µM (active); in the assay with A549 it was 0.0462 µM (active); with NCI-H23 it was 0.0233 µM (active); in the assay with OVCAR-8, 0.0316 µM (active); in the assay on K562 it was 0.0122 µM (active). In addition, the GI50 is 0.0331 µM (active) with LOX IMVI; 0.0406 µM (active) in the assay on SR; 0.0197 µM (active) in the assay with OVCAR-3; < 0.01 µM (active) in the assay with RXF 393; 0.027 µM (active) in the assay with COLO 205; < 0.01 µM (active) with SK-MEL-5.
For the compound `CC#CCCCC1(C)CCCNC1=S` (configuration not stated), the GI50 in the assay on OVCAR-4, with NCI/ADR-RES, with DU-145, with M14, in the assay with TK-10 and with KM12 was > 10 µM (inactive) each time. The GI50 with NCI-H522, with HT-29, in the assay with A549, in the assay with NCI-H23, in the assay on OVCAR-8 and with K562 was > 10 µM (inactive) each time. Moreover, the GI50 in the assay on LOX IMVI, in the assay on SR, in the assay on OVCAR-3, with RXF 393, in the assay with UACC-257 and in the assay with SK-MEL-5 was > 10 µM (inactive) each time.
For `COC(=O)C1CC2CCC1(O[Si](C(C)C)(C(C)C)C(C)C)C(O)C2` (configuration not stated), the GI50 in the assay with OVCAR-4 was 28.6 µM (inactive); in the assay with NCI/ADR-RES, 31.8 µM (inactive); with DU-145, 16.4 µM (inactive); with M14, 17.3 µM (inactive); in the assay with KM12, 17.6 µM (inactive); with NCI-H522, 21.8 µM (inactive). Also, the GI50 with HT-29 is 16.6 µM (inactive); with A549 it was 16.8 µM (inactive); in the assay with NCI-H23 it was 20.9 µM (inactive); with OVCAR-8 it was 14.9 µM (inactive); in the assay on SK-MEL-28 it was 19.4 µM (inactive); with K562, 12.4 µM (inactive). The GI50 is 14.4 µM (inactive) in the assay with LOX IMVI; 13.6 µM (inactive) in the assay with SR; 17.3 µM (inactive) in the assay on OVCAR-3; 15 µM (inactive) in the assay with RXF 393; 29.4 µM (inactive) with COLO 205; 23.1 µM (inactive) in the assay with SK-MEL-5.
As to `COc1cccc(/C(CC(O)(C(F)(F)F)C(F)(F)F)=N\N(C)C)c1`, the GI50 in the assay with OVCAR-4, in the assay with NCI/ADR-RES, in the assay with DU-145, in the assay on M14, in the assay with TK-10 and in the assay on KM12 was > 100 µM (inactive) throughout. Further, the GI50 with NCI-H522, with HT-29, in the assay with A549, in the assay on NCI-H23, with SK-MEL-28 and in the assay on K562 was > 100 µM (inactive) each time. The GI50 with LOX IMVI, with SR, with OVCAR-3, in the assay with RXF 393, in the assay on COLO 205 and with SK-MEL-5 was > 100 µM (inactive) each time.
